# From PMC9763021, “Comprehensive Assessment of Biomolecular Interactions of Morpholine-Based Mixed Ligand Cu(II) and Zn(II) Complexes of 2,2′-Bipyridine as Potential Anticancer and SARS-CoV-2 Agents: A Synergistic Experimental and Structure-Based Virtual Screening” (Bioinorganic Chemistry and Applications, 2022)
# Key:
# Aspergillus niger = assay: Agar disc diffusion, strain H; type: cell-based; parameters: (inhibition %): concentration or dose not given beside the values; conditions: for diameter of the clear zone inhibition: control = 6 mm
# Method: (§1) In-vitro antimicrobial properties were evaluated for all samples by the agar disc diffusion method towards different fungal and bacterial strains. Additionally, the reported inhibition zone values were comparatively analyzed with the standard antifungal drugs ketoconazole and amphotericin B as well as the standard antibiotic medications streptomycin and amikacin.
# (§2) The current research has a curious focus on the in vitro antimicrobial properties of biological systems because these studies are crucial for developing effective antibacterial and antifungal medications. […] It can also be spelled out based on the chelation theory proposed by Overtone and Tweedy. Chelation theory points out that the partial exchanging of the positive charge of the metal center with donor moieties, and overlap of the ligand orbitals will reduce the greater degree of the metal ion's polarity, which ultimately rises the delocalization of π and d electrons over the full chelated ring system. By raising the size of the metal ion due to the retarding of polarization, chelation may also enhance the complexes' lipophilic characteristics, which further stimulate the lipid membrane permeability and break down the bacteria' enzymes responsible for cell wall formation, therefore slowing down the regular cell processes. By preventing the production of cell walls/proteins/DNA, including by obstructing folate metabolism and the cytoplasmic membrane, antimicrobial drugs frequently either fully eliminate microbes or only prevent their cell growth. Additionally, the samples' mode of action may be employed in disrupting the cell's respiration process by forming an H-bond during the morpholine-fused iminic group coordinated with the active metal center of its components, inhibiting proliferation of the cell. […] The difference in the antimicrobial efficacy of some of the compounds towards various microorganisms influences on the impermeability of the cells of the germs or the diversity of ribosomes of the microbes. The % of the inhibition of all substances is estimated from (45) (Table 9).
# (§3) (A, B, C, D, and E are represented as gram negative bacteria species Escherichia coli, Salmonella enteric serovar typhi, Salmonella enteric serovar typhi, Pseudomonas aeruginosa, and Shigella flexneri, respectively. F & G are denoted as gram positive bacteria species Staphylococcus aureus and Bacillus cereus. H, I, and J are represented as fungal strains Aspergillus niger, Candida albicans, and Mucor indicus. Standard drugs for bacterial strains: Amikacin & Streptomycin Standard drugs for fungal strains: Ketoconazole and Amphotericin B. [Control (DMSO) = 6 mm].(44) Inhibition %=T–C/T×100, where T and C are represented as the diameter of microbial growth of the sample plates and the control plate (6 mm), respectively. Error limits ±2.5–5.0% (P ≤ 0.05).
# Candida albicans = assay: Agar disc diffusion, strain I; type: cell-based; parameters: (inhibition %): concentration or dose not given beside the values; conditions: for diameter of the clear zone inhibition: control = 6 mm
# Method: as §1, §2, §3
# Mucor indicus = assay: Agar disc diffusion, strain J; type: cell-based; parameters: (inhibition %): concentration or dose not given beside the values; conditions: for diameter of the clear zone inhibition: control = 6 mm
# Method: as §1, §2, §3
# [1] = test system: calf thymus deoxyribonucleic acid; assay: DNA binding by viscometric (hydrodynamic) technique
# Method: The titrations were performed for all compounds including EB (control) at 20, 40, 60, 80, and 100 μM concentrations. In the Ostwald viscometer, these substances were also separately treated with the calf thymus deoxyribonucleic acid solution (100 μM).
# Hydrodynamic findings can be utilized to assess the alteration of DNA length and afford details on the binding tendency between small molecules and biomolecules. As a result of their sensitivity to DNA contour length changes, which implies that the average distance between each monomer (cl = 0.338 nm/bp for B-form DNA), the DNA binding properties of all test compounds were further validated by this method. According to the Lerman concept, interactions between small molecules and deoxyribonucleic acid via covalent and noncovalent bindings are often possible. When a chemical substance interacts with the deoxyribonucleic acid double helix, the contour length of DNA increases via intercalation and leads to an increase in the absolute viscosity. Meanwhile, if DNA viscosity is not affected during interactions, which leads to the responsible for the major/minor groove binding due to H-bond/Van der Waals interactions, electrostatic, partial, or nonclassical interaction modes. Therefore, analyzing the binding modes provides additional support for the findings as well as a crucial aspect of the conventional intercalation concept. In this case, it was observed that the absolute viscosity increased consistently along with the concentration of each substance at the fixed DNA concentration. The DNA must extend to facilitate the binding of ligands, which causes a considerable rise in DNA viscosity while small molecules intercalate into the DNA helix. According to equation (12), an increase in relative viscosity denotes an intercalation-induced lengthening of the deoxyribonucleic acid base pair. While adhering to the principle of excluding the nearest neighbors, intercalation entails inserting a planar molecule into a DNA base pair without rupturing the hydrogen bonds that hold the base pairs together. This causes a diminution in the DNA helical twist and an extension of the DNA. Moreover, a molecule can be presumed to bind to deoxyribonucleic acid by intercalation between base pairs if it causes lengthening and unwinding of the deoxyribonucleic acid base pairs. In this case, the relative viscosity of DNA gradually increases, while the […]. Moreover, the affinity interactions and their slope values were observed from the relative specific viscosity (η⁄η0)^1/3 plotted straight line contrasting [Compound]/[DNA], and absolute specific viscosity of deoxyribonucleic acid in the absence or presence of samples was evaluated using equation (12) (Table 3). […] The evaluated slope findings were in the subsequent sequence: (EB) 1.215 > (1a) 0.915 > (2a) 0.630 > (HL) 0.490 (Figure S21 and Table 3). […] Due to the existence of the 2,2′-bipyridine and morpholine-fused aromatic planar systems, compounds can interact with deoxyribonucleic acid robustly via intercalation. The outcomes were excellent in accordance with the observed outcomes of absorption spectral properties.(11) η/η0^1/3=tcomplex−t0/t0/tDNA−t0/t0, where η and η0 are represented as specific viscosity of DNA in the presence complex and specific viscosity of DNA alone, and t0, tDNA, and tcomplex are represented as the average flow time of the Tris-HCl buffer solution, the average flow time of DNA alone solution, and the average flow time of DNA interacted with the samples, respectively. Error limit is ±2.5% (P < 0.025).
# [2] = DPPH radical scavenging assay; type: biochemical; conditions: for % Inhibition DPPH: 517 nm
# Method: (§4) All samples were evaluated for their scavenging ability with the help of UV-visible spectrophotometer at different concentrations of 40, 80, 120, 160, 200, and 240 μM [6, 28]. While performing the antioxidant properties for the DPPH, hydroxyl, superoxide, and nitric oxide radical scavenging, the absorbance at 517, 230, 590, and 546 nm, respectively, was closely observed. In addition, the observed IC50 values of all samples were compared with ascorbic acid.
# The colour of an aqueous or methanol solution changes from deep purple to pale yellow when DPPH, a stable chromogen free radical, combines with an antioxidant molecule, which means that DPPH quickly absorbs the hydrogen or electrons from the donor groups. In this case, for the baseline correction, a blank DPPH solution in the absence of a test compound was employed, and 517 nm (ε = 8320 M^−1·cm^−1) was attained to have a significant absorption maximum. […] The DPPH radicals are reduced by an antioxidant compound (AH), in which the reduction of electronic absorbance for each compound was vigilantly noted at 517 nm. The capacity to block radicals improves as the sample concentration increases. The assessed percentage of maximum inhibition for all substances was found at 240 μM in the subsequent order: (ascorbic acid) (85.65) > (1a) 68.64 > (2a) 59.55 > (HL) 52.45. […] Moreover, the % of scavenging or maximum inhibition for all substances is estimated with the aid of equation (44) (Table S14).(43) Scavanging%=A0−AS/A0×100
# [3] = Hydroxyl radical scavenging assay; type: biochemical; conditions: for % Inhibition hydroxyl radical: 230 nm
# Method: as §4
# Hydrogen peroxide receives electrons from antioxidant molecules and then neutralizes them into a water molecule. ^●OH inhibition capability was determined from the % of inhibition for all test substances at 230 nm.
# [4] = Superoxide scavenging assay; type: biochemical; conditions: for % Inhibition superoxide: 590 nm
# Method: as §4
# A vital enzyme catalyst in the body's defence against free radicals, superoxide dismutase (SOD) quickly and efficiently reduces toxicity and cellular damage by exchanging superoxide with water (or) harmless molecules. The % of inhibition for all substances was analyzed at 590 nm. The outcomes were obtained in the subsequent order: (ascorbic acid) 84.85 > (1a) 67.17 > (2a) 58.18 > (HL) 50.42.
# [5] = Nitric oxide scavenging assay; type: biochemical; conditions: for % Inhibition nitric oxide: 546 nm
# Method: as §4
# The diffusible nitric oxide free radical is a crucial chemical mediator, which assists in overcoming diverse chronological human diseases. The NO free radical scavenging potential for all test samples was also carried out at 546 nm. It monitored the alterations in electronic absorption intensity of the nitric oxide radical inhibition outcome concerning the sample concentrations. When the test sample concentration rises, the nitric oxide free inhibition effectiveness also increases. The measured % of nitric oxide radical scavenging capability for all samples at 240 μM was obtained in the subsequent order (ascorbic acid) 72.73 > (1a) 65.47 > (2a) 58.43 > (HL) 51.62.
smiles,measurement,setting,value
"CC(=O)N1CCN(c2ccc(OCC3COC(Cn4ccnc4)(c4ccc(Cl)cc4Cl)O3)cc2)CC1 (stereo not shown) [Ketoconazole, reference compound]",(inhibition %),Aspergillus niger,63%
same,diameter of the clear zone inhibition,Aspergillus niger,16 mm
same,(inhibition %),Candida albicans,67%
same,diameter of the clear zone inhibition,Candida albicans,18 mm
same,(inhibition %),Mucor indicus,67%
same,diameter of the clear zone inhibition,Mucor indicus,18 mm
"C[C@@H]1[C@H](O)[C@@H](C)/C=C/C=C/C=C/C=C/C=C/C=C/C=C/[C@H](O[C@@H]2O[C@H](C)[C@@H](O)[C@H](N)[C@@H]2O)C[C@@H]2O[C@](O)(C[C@@H](O)C[C@@H](O)[C@H](O)CC[C@@H](O)C[C@@H](O)CC(=O)O[C@H]1C)C[C@H](O)[C@H]2C(=O)O [Amphotericin B, reference compound]",(inhibition %),Aspergillus niger,60%
same,diameter of the clear zone inhibition,Aspergillus niger,15 mm
same,(inhibition %),Candida albicans,65%
same,diameter of the clear zone inhibition,Candida albicans,17 mm
same,(inhibition %),Mucor indicus,65%
same,diameter of the clear zone inhibition,Mucor indicus,17 mm
"CC[n+]1c(-c2ccccc2)c2cc(N)ccc2c2ccc(N)cc21 [EB (control), Ethidium bromide, reference compound]",Slope of (η/η0)^1/3 vs [Compound]/[DNA],[1],1.215
same,Relative specific viscosity (η/η0)^1/3,[1]; [complex]/[DNA] = 0.2,1.01
same,Relative specific viscosity (η/η0)^1/3,[1]; [complex]/[DNA] = 0.4,1.35
same,Relative specific viscosity (η/η0)^1/3,[1]; [complex]/[DNA] = 0.6,1.63
same,Relative specific viscosity (η/η0)^1/3,[1]; [complex]/[DNA] = 0.8,1.82
same,Relative specific viscosity (η/η0)^1/3,[1]; [complex]/[DNA] = 1.0,1.99
"O=C1O[C@H]([C@@H](O)CO)C(O)=C1O [Ascorbic acid, reference compound]",IC50,[2],80 µM
same,% Inhibition DPPH,[2]; 40 µM,41.63%
same,% Inhibition DPPH,[2]; 80 µM,53.74%
same,% Inhibition DPPH,[2]; 120 µM,58.95%
same,% Inhibition DPPH,[2]; 160 µM,70.86%
same,% Inhibition DPPH,[2]; 200 µM,82.75%
same,% Inhibition DPPH,[2]; 240 µM,85.65%
same,IC50,[3],160 µM
same,% Inhibition hydroxyl radical,[3]; 40 µM,20.73%
same,% Inhibition hydroxyl radical,[3]; 80 µM,36.46%
same,% Inhibition hydroxyl radical,[3]; 120 µM,47.87%
same,% Inhibition hydroxyl radical,[3]; 160 µM,59.65%
same,% Inhibition hydroxyl radical,[3]; 200 µM,65.64%
same,% Inhibition hydroxyl radical,[3]; 240 µM,78.83%
same,IC50,[4],120 µM
same,% Inhibition superoxide,[4]; 40 µM,29.64%
same,% Inhibition superoxide,[4]; 80 µM,41.72%
same,% Inhibition superoxide,[4]; 120 µM,55.63%
same,% Inhibition superoxide,[4]; 160 µM,66.75%
same,% Inhibition superoxide,[4]; 200 µM,72.55%
same,% Inhibition superoxide,[4]; 240 µM,84.85%
same,IC50,[5],160 µM
same,% Inhibition nitric oxide,[5]; 40 µM,28.55%
same,% Inhibition nitric oxide,[5]; 80 µM,35.75%
same,% Inhibition nitric oxide,[5]; 120 µM,43.65%
same,% Inhibition nitric oxide,[5]; 160 µM,52.68%
same,% Inhibition nitric oxide,[5]; 200 µM,63.72%
same,% Inhibition nitric oxide,[5]; 240 µM,72.73%
